# Reference: patent publication US20090062206A1 (UNIVERSITY OF SOUTH FLORIDA, priority 2006, published 2009)
# Like-named read-outs stand apart in the source and are kept apart here.
# Assays:
# [1] = human or animal subjects; cited from earlier work
# [2] = tested on: human renal carcinoma cells; experiment: DNA synthesis by bromodeoxyuridine (BrdU) incorporation into renal carcinoma cells; format: cell-based; settings: 1 μM, incubated 24 hours
# Description: To investigate whether these peptide hormones were inhibiting DNA synthesis, bromodeoxyuridine (BrdU) incorporation into the renal carcinoma cells was utilized as previously described from our laboratory. BrdU was from BD Bioscience, San Jose, Calif.
# [3] = tested on: human renal-cell carcinoma cells (ATCC CRL-2175); experiment: Decrease in number of human renal-cell carcinoma cells (cell counting on coverslips); format: cell-based; settings: for number of renal carcinoma cells remaining per high powered field: control 89±7 cells
# Experimental: A cell line (ATCC number CRL-2175) of human renal-cell carcinoma cells were purchased from American Type Culture Collection (ATCC, Manassas, Va.). This renal cancer cell line was established by A. Leibovitz in 1972 from a renal-cell carcinoma removed from a person with blood type O, Rh+.
# Propagation of these renal cancer cells was in Leibovitz's L-15 medium supplemented with 10% fetal bovine serum (Atlanta Biologicals, Lawrenceville, Ga.) at a temperature of 37° C. in a CO2 free environment as recommended by the ATCC. Cells were dispensed in new flasks with subculturing two to three times per week.
# After the renal-cell carcinoma cells were subcultured for 24 hours they were then seeded to coverslips in 24-well plates (Nunclon™, Roskilde, Denmark) with 1 mL of the above media. There were 65,000 cells seeded to each coverslip. After 24 hours, the well plates were washed twice with phosphate-buffered saline to remove the fetal bovine serum. Removal of serum was carried out to completely remove all variables (EGF, etc.) present in serum in order that interpretation of any data obtained would be straightforward. After 24 hours of serum deprivation, media volume was reduced to 250 μL per well with, or without, the respective peptide hormones in dose-response curves with concentrations up to and including 100 μM (1% of this volume). Human renal carcinoma cells were then incubated for various periods of time [24, 48, 72, and 96 hours]. The number of renal carcinoma cells were then counted with a cell counter (Thomas Scientific Swedesboro, N. J.) evaluating ten fields of the microscope slide at x40 along the X-axis with an Olympus BH-2 microscope (Atlanta, Ga.). This evaluation was repeated on six separate occasions with the number of renal carcinoma cells reflecting 60 observations for each group, i.e., 60 observations for controls and 60 observations for each of the six groups with respective peptide hormones. The peptide hormones used in this investigation were from Phoenix Pharmaceuticals, Inc., Belmont, Calif. In the Results section, the number of cancer cells reported is the number of cells in each individual field. Ten fields were examined on each microscope slide. The results of the ten fields were pooled and the average of the ten fields is illustrated in the Results section.
# The number of renal carcinoma cells after 24 hours without the addition of any of the peptide hormones averaged 89±7 cells per high powered field when ten fields of the coverslip were evaluated at ×40 along the X-axis with an Olympus BH2 microscope. This evaluation was repeated on six separate occasions, with the above number reflecting 60 observations by two independent investigators of the control group and each of the five groups with the addition of one of the peptide hormones. The same number of observations were done in a seventh group where four of the peptides were added together (each at 1 μM) to determine if they may have an additive effect.
# NPR-C receptor = NPR-C receptor (Homo sapiens, UniProt P17342); settings: cited from earlier work
# NPR-A receptor = NPR-A receptor (Homo sapiens, UniProt P16066); settings: cited from earlier work
# prostate adenocarcinoma = settings: 1 μM; cited from earlier work
# [4] = tested on: small-cell lung cancer cells; settings: 1 μM; cited from earlier work
# [5] = 1 μM, at 48 hours after 24 hour exposure
# [6] = 1 μM, at 72 hours after 24 hour exposure
# [7] = 1 μM, at 96 hours after 24 hour exposure
# [8] = 10 μM, at 48 hours after 24 hour exposure
# [9] = 10 μM, at 72 hours after 24 hour exposure
# [10] = 10 μM, at 96 hours after 24 hour exposure
# [11] = 100 μM, at 48 hours after 24 hour exposure
# [12] = 100 μM, at 72 hours after 24 hour exposure
# [13] = 100 μM, at 96 hours after 24 hour exposure
# Sequence of NPR-C receptor (P17342 27-541): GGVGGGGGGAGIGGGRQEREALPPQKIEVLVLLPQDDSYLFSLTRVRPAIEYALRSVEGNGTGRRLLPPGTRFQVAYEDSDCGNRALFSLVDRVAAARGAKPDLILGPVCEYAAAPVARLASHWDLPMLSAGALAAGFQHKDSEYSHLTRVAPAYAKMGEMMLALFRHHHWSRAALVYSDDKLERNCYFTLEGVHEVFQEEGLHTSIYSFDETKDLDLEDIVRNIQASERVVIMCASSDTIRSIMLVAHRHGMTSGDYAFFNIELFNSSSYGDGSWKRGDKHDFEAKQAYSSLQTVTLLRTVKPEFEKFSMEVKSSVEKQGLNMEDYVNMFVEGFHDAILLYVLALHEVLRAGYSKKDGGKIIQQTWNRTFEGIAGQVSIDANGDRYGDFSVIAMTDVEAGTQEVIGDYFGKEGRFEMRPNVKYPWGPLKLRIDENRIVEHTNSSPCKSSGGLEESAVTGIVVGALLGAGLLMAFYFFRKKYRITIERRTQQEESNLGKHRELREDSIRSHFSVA
# Sequence of NPR-A receptor (P16066 33-1061): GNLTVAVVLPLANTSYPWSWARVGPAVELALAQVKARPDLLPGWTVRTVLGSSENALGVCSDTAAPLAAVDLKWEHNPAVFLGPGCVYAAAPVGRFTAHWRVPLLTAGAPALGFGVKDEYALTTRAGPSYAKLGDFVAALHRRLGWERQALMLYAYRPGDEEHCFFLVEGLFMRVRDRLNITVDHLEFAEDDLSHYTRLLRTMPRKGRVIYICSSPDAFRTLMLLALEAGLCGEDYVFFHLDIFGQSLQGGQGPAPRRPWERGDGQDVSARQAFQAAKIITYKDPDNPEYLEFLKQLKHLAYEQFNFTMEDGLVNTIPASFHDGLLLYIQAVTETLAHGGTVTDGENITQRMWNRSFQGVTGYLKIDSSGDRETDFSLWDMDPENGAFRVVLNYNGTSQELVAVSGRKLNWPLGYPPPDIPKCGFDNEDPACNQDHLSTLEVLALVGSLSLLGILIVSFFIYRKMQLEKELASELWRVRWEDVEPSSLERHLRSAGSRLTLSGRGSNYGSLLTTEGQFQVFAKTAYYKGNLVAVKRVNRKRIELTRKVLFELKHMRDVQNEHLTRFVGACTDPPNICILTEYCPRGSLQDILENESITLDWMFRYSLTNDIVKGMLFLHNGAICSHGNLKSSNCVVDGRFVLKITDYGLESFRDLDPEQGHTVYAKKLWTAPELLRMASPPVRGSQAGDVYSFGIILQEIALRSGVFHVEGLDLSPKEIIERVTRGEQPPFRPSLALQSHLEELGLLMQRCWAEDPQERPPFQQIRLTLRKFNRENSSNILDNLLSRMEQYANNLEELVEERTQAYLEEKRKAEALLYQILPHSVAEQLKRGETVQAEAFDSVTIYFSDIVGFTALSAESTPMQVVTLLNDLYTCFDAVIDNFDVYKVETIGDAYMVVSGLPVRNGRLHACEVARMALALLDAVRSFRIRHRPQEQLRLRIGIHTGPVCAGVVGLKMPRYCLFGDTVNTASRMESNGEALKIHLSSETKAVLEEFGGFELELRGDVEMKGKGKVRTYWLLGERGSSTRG
Compound,side effect hypotension [1],inhibition of DNA synthesis [2] [%],"decrease in number of renal carcinoma cells [3, 5] [%]","decrease in number of renal carcinoma cells [3, 6] [%]","decrease in number of renal carcinoma cells [3, 7] [%]","decrease in number of renal carcinoma cells ([3]; 10 μM, 24 hours) [%]","decrease in number of renal carcinoma cells [3, 8] [%]","decrease in number of renal carcinoma cells [3, 9] [%]","decrease in number of renal carcinoma cells [3, 10] [%]","decrease in number of renal carcinoma cells ([3]; 100 μM, 24 hours) [%]","number of renal carcinoma cells remaining per high powered field ([3]; 100 μM, 24 hours) [cells]","decrease in number of renal carcinoma cells [3, 11] [%]","decrease in number of renal carcinoma cells [3, 12] [%]","decrease in number of renal carcinoma cells [3, 13] [%]","decrease in number of renal carcinoma cells ([3]; 1 μM, 24 hours) [%]",also measured
CC[C@H](C)[C@@H]1NC(=O)[C@H](CCCNC(=N)N)NC(=O)[C@H](CC(=O)O)NC(=O)[C@H](CCSC)NC(=O)[C@H](CCCNC(=N)N)NC(=O)CNC(=O)CNC(=O)[C@H](Cc2ccccc2)NC(=O)[C@@H](NC(=O)[C@H](CO)NC(=O)[C@H](CO)NC(=O)[C@H](CCCNC(=N)N)NC(=O)[C@H](CCCNC(=N)N)NC(=O)[C@H](CC(C)C)NC(=O)[C@@H](N)CO)CSSC[C@@H](C(=O)N[C@@H](CC(N)=O)C(=O)N[C@@H](CO)C(=O)N[C@@H](Cc2ccccc2)C(=O)N[C@@H](CCCNC(=N)N)C(=O)N[C@@H](Cc2ccc(O)cc2)C(=O)O)NC(=O)CNC(=O)[C@H](CC(C)C)NC(=O)CNC(=O)[C@H](CO)NC(=O)[C@H](CCC(N)=O)NC(=O)[C@H](C)NC(=O)CNC1=O [ANP],observed,77,–,–,–,–,–,–,–,–,–,–,–,–,–,–
"LANP: long acting natriuretic peptide, peptide hormone within the 126 amino acid ANP prohormone (NPMYNAVSNADLMDFKNLLDHLEEKMPLED; Long-acting natriuretic peptide; UniProt P01160 26-55, looked up)",never,70,30,30,24,55,50,47,39,70,26±2,70,70,61,–,–
Urodilatin,–,65,17,15,10,46,46,43,37,66,30±2,65,64,58,24,"binding curves compared with ANP (NPR-C receptor): superimposable with ANP; binding curves compared with ANP (NPR-C receptor; listed as urodilatin): nearly superimposable binding curves; cancer cells killed (maximum) ([3]; within 24 hours, concentration not given): up to 81%; binding curves compared with ANP (NPR-A receptor): superimposable with ANP; binding curves compared with ANP (NPR-A receptor; listed as urodilatin): nearly superimposable binding curves"
"kaliuretic peptide: peptide hormone within the 126 amino acid ANP prohormone synthesized in the heart (SSDRSALLKSKLRALLTAPR; Kaliuretic peptide; UniProt P01160 104-123, looked up)",never,74,35,31,25,54,52,47,40,74,23±3,76,71,64,39,decrease in cancer cell number (prostate adenocarcinoma): 30%; decrease in cancer cell number [4]: 30%
"vessel dilator: peptide hormone within the 126 amino acid ANP prohormone synthesized in the heart (EVVPPQVLSEPNEEAGAALSPLPEVPPWTGEVSPAQR; Vessel dilator; UniProt P01160 56-92, looked up)",never,84,55,51,43,62,66,64,55,81,17±4,81,80,68,59,–
